Target: T1, Human soluble guanylate cyclase enzyme (hsGC) (Homo sapiens, UniProt Q02108+Q02153)
T1 construct: purchased Enzo Inc. ALX-201-177
T1 sequence (Q02153 1-619): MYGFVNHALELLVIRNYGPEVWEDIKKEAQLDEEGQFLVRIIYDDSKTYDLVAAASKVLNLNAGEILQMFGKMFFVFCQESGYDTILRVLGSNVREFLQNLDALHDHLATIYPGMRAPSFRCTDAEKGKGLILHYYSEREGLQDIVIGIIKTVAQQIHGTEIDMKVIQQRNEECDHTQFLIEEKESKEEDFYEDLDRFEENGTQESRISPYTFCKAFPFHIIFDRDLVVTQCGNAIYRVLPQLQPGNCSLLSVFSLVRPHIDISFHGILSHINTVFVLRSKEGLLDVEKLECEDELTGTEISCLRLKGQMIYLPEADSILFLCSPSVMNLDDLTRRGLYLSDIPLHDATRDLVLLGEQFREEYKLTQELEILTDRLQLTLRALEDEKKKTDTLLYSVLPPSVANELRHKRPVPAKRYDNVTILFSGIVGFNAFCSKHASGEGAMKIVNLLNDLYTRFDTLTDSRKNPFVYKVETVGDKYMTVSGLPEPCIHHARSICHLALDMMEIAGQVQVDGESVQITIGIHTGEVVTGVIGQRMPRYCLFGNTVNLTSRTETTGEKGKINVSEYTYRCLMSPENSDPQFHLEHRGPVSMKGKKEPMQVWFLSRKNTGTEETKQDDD
T1 sequence (Q02108 1-690): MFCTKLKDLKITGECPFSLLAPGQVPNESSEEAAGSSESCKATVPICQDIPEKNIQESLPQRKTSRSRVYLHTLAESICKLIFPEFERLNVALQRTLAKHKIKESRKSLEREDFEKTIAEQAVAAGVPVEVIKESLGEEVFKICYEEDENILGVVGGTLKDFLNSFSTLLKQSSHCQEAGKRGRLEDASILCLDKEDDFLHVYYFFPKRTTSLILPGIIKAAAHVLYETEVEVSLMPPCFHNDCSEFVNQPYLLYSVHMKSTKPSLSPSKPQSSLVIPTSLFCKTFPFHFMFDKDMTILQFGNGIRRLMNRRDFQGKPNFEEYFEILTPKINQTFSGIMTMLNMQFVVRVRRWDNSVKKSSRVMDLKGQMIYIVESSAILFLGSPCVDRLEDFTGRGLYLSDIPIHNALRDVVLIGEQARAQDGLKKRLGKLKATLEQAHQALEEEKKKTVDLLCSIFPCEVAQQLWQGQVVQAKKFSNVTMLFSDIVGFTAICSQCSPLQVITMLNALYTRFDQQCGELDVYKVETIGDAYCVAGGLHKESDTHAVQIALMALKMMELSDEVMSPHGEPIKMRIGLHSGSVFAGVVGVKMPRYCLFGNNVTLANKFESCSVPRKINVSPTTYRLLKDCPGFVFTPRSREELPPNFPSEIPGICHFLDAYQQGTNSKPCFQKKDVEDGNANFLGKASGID
Experiment: Purified human sGC enzyme activity assay (with or without SNP)
Format: biochemical
Settings: for sGC Enzyme Activity Increase at 30 μM with SNP / sGC Enzyme Activity Increase at 30 μM without SNP: 30 μM compound
Outline: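 Purified human sGC (5 ng) incubated 30 min at 37° C with compound at 10 or 30 μM, 300 μM GTP, 2 mM MgCl2 and 1 mM IBMX at pH 8.0, with or without 1 μM SNP. cGMP formed was quantified against a standard curve. Results are given as fold-change in specific activity over DMSO (or DMSO+SNP) control.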

[1] = 1 μM SNP, specific activity vs DMSO and SNP
[2] = without SNP, specific activity vs DMSO control

SMILES | sGC Enzyme Activity Increase at 10 μM with SNP (10 μM compound, 1 μM SNP, specific activity vs DMSO and SNP) | sGC Enzyme Activity Increase at 10 μM without SNP (10 μM compound, without SNP, specific activity vs DMSO control) | sGC Enzyme Activity Increase at 30 μM with SNP [1] | sGC Enzyme Activity Increase at 30 μM without SNP [2]
Fc1ccccc1Cn1nc(-c2ccccn2)nc1-c1ccccn1 [Compound I-1] | B (B = 1 to <2 fold increase) | B (B = 1 to <2 fold increase) | C (C = 2 to <5 fold increase) | C (C = 2 to <5 fold increase)
Fc1ccccc1Cn1nc(-c2ncccn2)nc1-c1cscn1 [Compound I-3] |  |  | D (D = 5 to <10 fold increase) | B (B = 1 to <2 fold increase)
Fc1ccccc1Cn1nc(-c2ccccn2)nc1-c1cscn1 [Compound I-4] |  |  | E (E = 10 to <20 fold increase) | C (C = 2 to <5 fold increase)
Fc1ccccc1Cn1nc(-c2ccccn2)nc1-c1ncco1 [Compound I-6] |  |  | D (D = 5 to <10 fold increase) | D (D = 5 to <10 fold increase)
Fc1ccccc1Cn1nc(-c2ccccn2)nc1-c1cocn1 [Compound I-12, 4-(1-(2-fluorobenzyl)-3-(pyridin-2-yl)-1H-1,2,4-triazol-5-yl)oxazole] |  |  | E (E = 10 to <20 fold increase) | C (C = 2 to <5 fold increase)
Fc1ccccc1Cn1nc(-c2ccccn2)nc1-c1nccs1 [Compound I-25] |  |  | E (E = 10 to <20 fold increase) | D (D = 5 to <10 fold increase)
Fc1ccccc1Cn1nc(-c2ncccn2)nc1-c1nccs1 [Compound I-30] |  |  | C (C = 2 to <5 fold increase) | B (B = 1 to <2 fold increase)
Fc1ccc(-c2nc(-c3nccs3)n(Cc3ccccc3F)n2)nc1 [Compound I-38] |  |  | E (E = 10 to <20 fold increase) | C (C = 2 to <5 fold increase)
Fc1ccccc1Cn1nc(-c2cscn2)nc1-c1nccs1 [Compound I-40] |  |  | D (D = 5 to <10 fold increase) | B (B = 1 to <2 fold increase)
Fc1ccccc1Cn1nc(-c2nccs2)nc1-c1cscn1 [Compound I-41] |  |  | E (E = 10 to <20 fold increase) | C (C = 2 to <5 fold increase)
Nc1ccnc(-c2nc(-c3nccs3)n(Cc3ccccc3F)n2)c1 [Compound I-44] |  |  | F (F = 20 to <50 fold increase) | D (D = 5 to <10 fold increase)
Fc1ccccc1Cn1nc(-c2ncccn2)nc1-c1cocn1 [Compound I-46] |  |  | C (C = 2 to <5 fold increase) | B (B = 1 to <2 fold increase)
Nc1ccnc(-c2nc(-c3nccs3)n(Cc3ccccc3F)n2)n1 [Compound I-48, 2-(1-(2-fluorobenzyl)-5-(thiazol-2-yl)-1H-1,2,4-triazol-3-yl)pyrimidin-4-amine] |  |  | D (D = 5 to <10 fold increase) | C (C = 2 to <5 fold increase)
Fc1ccccc1Cn1nc(-c2ccccn2)nc1-n1cncn1 [Compound I-50, 2′-(2-fluorobenzyl)-5′-(pyridin-2-yl)-2′H-1,3′-bi(1′,2′,4-triazole)] |  |  | C (C = 2 to <5 fold increase) | B (B = 1 to <2 fold increase)
Nc1ccnc(-c2nc(-c3cscn3)n(Cc3ccccc3F)n2)c1 [Compound I-53, 2-(1-(2-fluorobenzyl)-5-(thiazol-4-yl)-1H-1,2,4-triazol-3-yl)pyridin-4-amine] |  |  | F (F = 20 to <50 fold increase) | D (D = 5 to <10 fold increase)
COC(=O)N(C)c1c(N)nc(-c2nc(-c3nccs3)n(Cc3ccccc3F)n2)nc1N [Compound I-61, methyl 4,6-diamino-2-(1-(2-fluorobenzyl)-5-(thiazol-2-yl)-1H-1,2,4-triazol-3-yl)pyrimidin-5-yl(methyl)carbamate] |  |  | D (D = 5 to <10 fold increase) | C (C = 2 to <5 fold increase)

— US9061030B2, “sGC stimulators” (IRONWOOD PHARMACEUTICALS, INC., priority 2010, dated 2015)
